{"source": "patent US9702866B2", "about": "“Glatiramer acetate human monocytic cell line-based potency assay” (SYNTHON B.V., priority 2013, dated 2017)", "key": {"[1]": {"conditions": "MS patients, in vivo; cited from earlier work"}, "THP-1 cells [2]": {"system": "THP-1 cells", "assay": "cell viability by ATP levels (CellTiter-Glo) in IFNγ-activated THP-1 cells", "type": "cell-based, human", "conditions": "IFNγ (25 ng/ml)-activated THP-1 cells, after 120 h of culture", "protocol": "In another embodiment of the present invention, the viability of human monocytic cell line cells, particularly THP-1 cells, is measured. Suitable methods to determine viability of human monocytic cell line cells are well-known to the person skilled in the art. One suitable method is measuring ATP levels (for instance the CellTiter-Glo® Luminescent Cell Viability Assay is a homogeneous method to determine the number of viable cells in culture based on quantitation of the ATP present, which signals the presence of metabolically active cells) after a suitable time period, typically after 96-144 hours, particularly after 120 hours. When determining the number of viable cells, similar or slightly higher concentrations of IFNγ can be used as described above.\nUpon confirmation of parallelism the reduced model will be fitted and the EC50 for the Reference and test batch will be estimated by EC50RS and EC50TA respectively. The relative potency of the test batch will be estimated as: Relative potency=EC50RS/EC50TA*100% Cell Viability • The number of metabolically active cells in the cultures is determined by the CellTiter-Glo® Luminescent Cell Viability Assay (Promega, G7571). […] It is based on quantitation of adenosine tri-phosphate (ATP), which signals the presence of metabolically active cells."}, "human monocytes": {"system": "human monocytes", "conditions": "human monocytes in vitro; cited from earlier work"}, "[3]": {"system": "Human leukemic monocyte lymphoma cells (U937)", "assay": "responsiveness of U937 cells to GA", "type": "cell-based"}, "THP-1 cells [4]": {"system": "THP-1 cells", "assay": "sIL-1Ra expression of IFNγ-stimulated THP-1 cells after exposure to GA (ELISA)", "type": "cell-based, human", "conditions": "THP-1 cells in the presence of IFNγ", "protocol": "• Add 10 ml RPMI-1640 Medium (Lonza/Cambrex, #12-70F) with 10% FBS (fetal bovine serum) to a 15 ml sterile tube. • Remove one vial of THP-1 cells (ATCC, #TIB-202) from the liquid nitrogen storage tank and thaw the cells in the vial by gentle agitation in a 37° C.±1° C. water bath until almost totally thawed. • Sterilize the outside of the vial using a wipe, soaked in 70% (v/v) ethanol. • Using good aseptic technique, open the vial and transfer the contents of the vial into a Falcon tube, adding 10 ml of the pre-warmed RPMI-1640 plus 10% FBS. • Spin down at approximately 200 g for 5 minutes. Afterwards, discard the supernatant. • Resuspend the pellet into 10 ml pre-warmed RPMI-1640 plus 10% FBS, and transfer the cell suspension to a T-25 culture flask. • Place the T-25 cell culture flask into a humidified incubator at 37±1° C. and 5.0±1% CO2. Sub-Culturing (Passaging) of THP-1 Cells • THP-1 cells are sub-cultured every 3 or 4 days. • Collect cells and spin down at 200 g for 5 min. […] Supernatant Harvest and ELISA • After 72 hours of incubation centrifuge the 96-well plate at 200 g for 5 minutes. • Transfer 125 μl of the cell-free supernatant/well to a storage plate. • sIL-1Ra is determined in the cell supernatants using the sIL-1Ra ELISA kit from Quantikine, R&D, Minneapolis, Minn. […]"}, "THP-1 cells [5]": {"system": "THP-1 cells", "assay": "lactate dehydrogenase (LDH) release as marker for cell death in IFNγ-activated THP-1 cells", "type": "cell-based, human", "conditions": "100 μg/ml glatiramer acetate, IFNγ (10 ng/ml)-activated THP-1 cells"}}, "data": [{"substance": "Glatiramer acetate [GA]", "values": [{"measurement": "sIL-1Ra circulating levels", "setting": "[1]", "value": "enhances sIL-1Ra circulating levels"}, {"measurement": "cell viability (ATP levels)", "setting": "THP-1 cells [2]", "value": "cell viability inhibition"}, {"measurement": "production of sIL-1Ra in monocytes", "setting": "human monocytes", "value": "induces the production"}, {"measurement": "responsiveness of cells to GA", "setting": "[3]", "value": "not responsive"}, {"measurement": "sIL-1Ra secretion", "setting": "THP-1 cells [4]", "value": "induces sIL-1Ra secretion"}, {"measurement": "cell death (LDH release)", "setting": "THP-1 cells [5]", "value": "induces cell death"}]}]}
